Patent US8034822B2, “Glucokinase activators” (Takeda San Diego, Inc., priority 2006, dated 2011)

Target: T1, glucokinase (GK) (Homo sapiens, UniProt P35557)
T1 construct: I.D. No. 1 corresponds to residues 12-465 of glucokinase; made in house; host or cells: E. coli DH10b-T1r, pFLAG-CTC plasmid
T1 sequence (P35557 with tags, fused parts or gaps isoform P35557-2): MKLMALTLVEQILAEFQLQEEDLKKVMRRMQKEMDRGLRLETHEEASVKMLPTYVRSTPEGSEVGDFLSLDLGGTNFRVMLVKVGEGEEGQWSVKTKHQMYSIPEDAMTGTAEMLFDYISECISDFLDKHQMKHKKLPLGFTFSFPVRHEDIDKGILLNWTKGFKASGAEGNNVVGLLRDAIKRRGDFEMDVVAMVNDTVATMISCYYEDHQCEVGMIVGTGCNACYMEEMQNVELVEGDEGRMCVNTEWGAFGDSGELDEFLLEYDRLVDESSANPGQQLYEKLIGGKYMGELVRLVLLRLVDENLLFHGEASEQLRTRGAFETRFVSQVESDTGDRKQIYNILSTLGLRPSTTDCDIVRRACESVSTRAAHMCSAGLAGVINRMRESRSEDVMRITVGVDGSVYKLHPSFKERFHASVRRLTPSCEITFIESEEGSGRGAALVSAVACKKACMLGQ
Assay: enzymatic glucokinase activity assay (ATP consumption, KinaseGlo luminescence)
Assay type: biochemical
Details: Against GK; Kact = concentration giving 50% of maximal increase in GK activity; 5 μM ATP, 5 mM Glucose, 60 min room temperature; values given as bins; read-out: pKact
From the text: The activity of compounds as glucokinase activators may be assayed in vitro, in vivo or in a cell line. Provided below is an enzymatic glucokinase activity assay.
Purified glucokinase may be obtained as follows. DNA encoding residues 12-465 of the full-length sequence of the human enzyme may be amplified by PCR and cloned into the HindIII and EcoRI sites of pFLAG-CTC (Sigma). SEQ. I.D. No. 1 corresponds to residues 12-465 of glucokinase.
The expression of recombinant glucokinase protein may be carried out by transformation and growth of DH10b-T1r E. coli cells incorporating the (pFLAG-CTC) plasmid in LB media. Protein expression can be induced in this system by the addition of IPTG to the culture medium.
Recombinant protein may be isolated from cellular extracts by passage over Sepharose Q Fast Flow resin (Pharmacia). This partially purified GK extract may then be further purified by a second passage over Poros HQ10 (Applied Biosystems). The purity of GK may be determined on denaturing SDS-PAGE gel. Purified GK may then be concentrated to a final concentration of 20.0 mg/ml. After flash freezing in liquid nitrogen, the proteins can be stored at −78° C. in a buffer containing 25 mM TRIS-HCl pH 7.6, 50 mM NaCl, and 0.5 mM TCEP.
The activation properties of compounds for GK may be determined using a black 384-well-plate format under the following reaction conditions: 25 mM Hepes pH 7.2, 25 mM NaCl, 10 mM MgCl2, 0.01% Brij35, 1 mM DTT, 5 μM ATP, 5 mM Glucose 2% DMSO. The amount of ATP consumed may be determined quantitatively by addition of equal volume of luciferase reagent (luciferase+beetle luciferin—KinaseGlo Luminescent Kinase Assay kit from Promega). The luminescence intensity may be measured by using the Analyst HT from LJL Biosystems.
The assay reaction may be initiated as follows: 4 μl of substrate mixture (12.5 μM ATP and 12.5 mM Glucose) was added to each well of the plate, followed by the addition of 2 μl of activator (2 fold serial dilutions for 11 data points for each activator) containing 10% DMSO. 4 μL of 1.25 nM GK solution may be added to initiate the reaction. The reaction mixture may then be incubated at room temperature for 60 min, and quenched and developed by addition of 10 μL of luciferase reagent. Luminescence intensities of the resulting reaction mixtures may be measured after a 10 min incubation at room temperature. The luminescence intensity may be measured by using the Analyst HT from LJL Biosystems.
pKact and % ACTmax values may be calculated by non-linear curve fitting of the compound concentrations and luminescence intensities to a standard inhibition/activation equation.

Structure (SMILES)	EC50
CNC(=O)c1ccc2c(=O)n(C(CC3CCCCC3)C(=O)Nc3ncc(Cl)s3)cnc2c1 (stereo not shown) [Compound 175, 3-(1-(5-chlorothiazol-2-ylamino)-3-cyclohexyl-1-oxopropan-2-yl)-N-methyl-4-oxo-3,4-dihydroquinazoline-7-carboxamide]	≤ 0.398 µM
O=C(Nc1ncc(Cl)s1)C(CC1CCCCC1)n1cnc2c(C(F)(F)F)cccc2c1=O (stereo not shown) [Compound 142, N-(5-chlorothiazol-2-yl)-3-cyclohexyl-2-(4-oxo-8-(trifluoromethyl)-quinazolin-3(4H)-yl)propanamide]	≥ 2 µM
O=C(Nc1ccc(F)cn1)C(CC1CCCCC1)n1cnc2cc(S(=O)(=O)C3CC3)ccc2c1=O (stereo not shown) [Compound 74, 3-Cyclohexyl-2-(7-cyclopropanesulfonyl-4-oxo-4H-quinazolin-3-yl)-N-(5-fluoro-pyridin-2-yl)-propionamide]	1 to 1.58 µM
O=C(NC1CC1)c1ccc2c(=O)n(C(CC3CCCCC3)C(=O)Nc3ccc(F)cn3)cnc2c1 (stereo not shown) [Compound 118, 3-(3-Cyclohexyl-1-(5-fluoropyridin-2-ylamino)-1-oxopropan-2-yl)-N-cyclopropyl-4-oxo-3,4-dihydroquinazoline-7-carboxamide]	0.501 to 0.794 µM
Cn1c(=O)n(C(CC2CCCCC2)C(=O)Nc2nccs2)c(=O)c2cc(Cl)ccc21 (stereo not shown) [Compound 39, 2-(6-chloro-1-methyl-2,4-dioxo-1,2-dihydroquinazolin-3(4H)-yl)-3-cyclohexyl-N-(thiazol-2-yl)propanamide]	≥ 2 µM
NC(=O)c1ccc(NC(=O)C(CC2CCCCC2)n2cnc3cc(C(=O)NC4CC4)ccc3c2=O)nc1 (stereo not shown) [Compound 169, 3-(1-(5-carbamoylpyridin-2-ylamino)-3-cyclohexyl-1-oxopropan-2-yl)-N-cyclopropyl-4-oxo-3,4-dihydroquinazoline-7-carboxamide]	≤ 0.398 µM
CS(=O)(=O)c1ccc2ncn([C@@H](CC3CCCCC3)C(=O)Nc3ccc(C(N)=O)cn3)c(=O)c2c1 [Compound 93, 6-[3-Cyclohexyl-2-(6-methanesulfonyl-4-oxo-4H-quinazolin-3-yl)-propionylamino]-nicotinamide]	0.501 to 0.794 µM
COC(=O)c1ccc(NC(=O)C(CC2CCCCC2)n2cnc3c(C)cc(Cl)cc3c2=O)nc1 (stereo not shown) [Compound 207, methyl 6-(2-(6-chloro-8-methyl-4-oxoquinazolin-3(4H)-yl)-3-cyclohexylpropanamido)nicotinate]	1 to 1.58 µM
O=C(Nc1nccs1)C(CC1CCCCC1)n1cnc2c(Cl)cccc2c1=O (stereo not shown) [Compound 139, 2-(8-chloro-4-oxoquinazolin-3(4H)-yl)-3-cyclohexyl-N-(thiazol-2-yl)propanamide]	≥ 2 µM
CS(=O)(=O)c1ccc2c(=O)n(C(CC3CCCCC3)C(=O)Nc3ccc(C(=O)O)cn3)cnc2c1 (stereo not shown) [Compound 65, 6-[3-Cyclohexyl-2-(7-methanesulfonyl-4-oxo-4H-quinazolin-3-yl)-propionylamino]-nicotinic acid]	≥ 2 µM
CCS(=O)(=O)c1ccc2c(=O)n(C(CC3CCCCC3)C(=O)Nc3ccc(Cl)cn3)cnc2c1 (stereo not shown) [Compound 72, N-(5-Chloro-pyridin-2-yl)-3-cyclohexyl-2-(7-ethanesulfonyl-4-oxo-4H-quinazolin-3-yl)-propionamide]	0.501 to 0.794 µM
O=C(Nc1ccccn1)C(CC1CCCCC1)n1cnc2ccc(F)cc2c1=O (stereo not shown) [Compound 36, 3-cyclohexyl-2-(6-fluoro-4-oxoquinazolin-3(4H)-yl)-N-(pyridin-2-yl)propanamide]	≥ 2 µM
O=C(Nc1ncc(Cl)s1)C(CC1CCCCC1)n1c(=O)[nH]c2ccc(F)cc2c1=O (stereo not shown) [Compound 38, N-(5-chlorothiazol-2-yl)-3-cyclohexyl-2-(6-fluoro-2,4-dioxo-1,2-dihydroquinazolin-3(4H)-yl)propanamide]	≥ 2 µM
O=C(NC1CC1)c1ccc2c(=O)n(C(CC3CCCCC3)C(=O)Nc3ccc(F)cn3)c(=O)[nH]c2c1 (stereo not shown) [Compound 119, 3-(3-cyclohexyl-1-(5-fluoropyridin-2-ylamino)-1-oxopropan-2-yl)-N-cyclopropyl-2,4-dioxo-1,2,3,4-tetrahydroquinazoline-7-carboxamide]	≥ 2 µM
CS(=O)(=O)c1ccc2c(=O)n(C(CC3CCCCC3)C(=O)Nc3ccc(C(=O)O)cn3)c(=O)[nH]c2c1 (stereo not shown) [Compound 64, 6-[3-Cyclohexyl-2-(7-methanesulfonyl-2,4-dioxo-1,4-dihydro-2H-quinazolin-3-yl)-propionylamino]-nicotinic acid]	≥ 2 µM
Cc1cnc(NC(=O)C(CC2CCCCC2)n2cnc3cc(S(C)(=O)=O)ccc3c2=O)s1 (stereo not shown) [Compound 61, 3-Cyclohexyl-2-(7-methanesulfonyl-4-oxo-4H-quinazolin-3-yl)-N-(5-methyl-thiazol-2-yl)-propionamide]	≥ 2 µM
CS(=O)(=O)c1ccc2c(=O)n(C(CC3CCCCC3)C(=O)Nc3ccc(C(N)=O)cn3)cnc2c1 (stereo not shown) [Compound 158, 6-(3-cyclohexyl-2-(7-(methylsulfonyl)-4-oxoquinazolin-3(4H)-yl)propanamido)nicotinamide]	0.501 to 0.794 µM
CC(C)S(=O)(=O)c1ccc2ncn(C(CC3CCCCC3)C(=O)Nc3ccc(Cl)cn3)c(=O)c2c1 (stereo not shown) [Compound 84, N-(5-Chloro-pyridin-2-yl)-3-cyclohexyl-2-[4-oxo-6-(propane-2-sulfonyl)-4H-quinazolin-3-yl]-propionamide]	0.501 to 0.794 µM
O=C(Nc1ccc2ccccc2n1)C(CC1CCCCC1)n1cnc2ccc(F)cc2c1=O (stereo not shown) [Compound 195, 3-cyclohexyl-2-(6-fluoro-4-oxoquinazolin-3(4H)-yl)-N-(quinolin-2-yl)propanamide]	0.501 to 0.794 µM
O=C(NC1CC1)c1ccc2c(=O)n(C(CC3CCOCC3)C(=O)Nc3ncc(Cl)s3)c(=O)[nH]c2c1 (stereo not shown) [Compound 181, 3-(1-(5-chlorothiazol-2-ylamino)-1-oxo-3-(tetrahydro-2H-pyran-4-yl)propan-2-yl)-N-cyclopropyl-2,4-dioxo-1,2,3,4-tetrahydroquinazoline-7-carboxamide]	≥ 2 µM
CS(=O)(=O)c1ccc2c(=O)n(C(CC3CCCCC3)C(=O)Nc3ncc(Cl)s3)cnc2c1 (stereo not shown) [Compound 56, N-(5-Chloro-thiazol-2-yl)-3-cyclohexyl-2-(7-methanesulfonyl-4-oxo-4H-quinazolin-3-yl)-propionamide]	1 to 1.58 µM
COC(=O)c1ccc(NC(=O)C(CC2CCCCC2)n2cnc3cc(S(=O)(=O)CC4CC4)ccc3c2=O)nc1 (stereo not shown) [Compound 90, 6-[3-Cyclohexyl-2-(7-cyclopropylmethanesulfonyl-4-oxo-4H-quinazolin-3-yl)-propionylamino]-nicotinic acid methyl ester]	0.501 to 0.794 µM
COC(=O)c1ccc(NC(=O)C(CC2CCCCC2)n2cnc3c(S(C)(=O)=O)csc3c2=O)nc1 (stereo not shown) [Compound 102, Methyl 6-(3-cyclohexyl-2-(7-(methylsulfonyl)-4-oxothieno[3,2-d]pyrimidin-3(4H)-yl)propanamido)nicotinate]	1 to 1.58 µM
NC(=O)c1ccc(NC(=O)C(CC2CCCCC2)n2cnc3cc(S(=O)(=O)C4CC4)ccc3c2=O)nc1 (stereo not shown) [Compound 91, 6-[3-Cyclohexyl-2-(7-cyclopropanesulfonyl-4-oxo-4H-quinazolin-3-yl)-propionylamino]-nicotinamide]	≤ 0.398 µM
CCOC(=O)CCc1ccc(NC(=O)C(CC2CCCCC2)n2cnc3cc(S(C)(=O)=O)ccc3c2=O)nc1 (stereo not shown) [Compound 76, 3-{6-[3-Cyclohexyl-2-(7-methanesulfonyl-4-oxo-4H-quinazolin-3-yl)-propionylamino]-pyridin-3-yl}-propionic acid ethyl ester]	≥ 2 µM
